From patent publication US11053608B2, “Combinatorial derivatives of RNA oligonucleotides” (priority 2017, dated 2021) come the findings set out here.

One data set relates to skin wounds. Put plainly: Wound healing activity. The format is in vivo, male Vistar white rats. Here is the method: The study of the wound healing properties of the compositions was carried out on male Vistar white rats. In 38 animals that were anesthetized with diethyl ether for 2-4 min., A 2 by 2 cm skin area was cut out on the dorsal side of the body, behind the right shoulder blade. The skin was taken with tweezers, it was pulled back, the skin fragment was cut 2 cm in size, wound depth 2 mm, the average area of the wound was 4±1.0 cm^2.
The resulting wounds of a polygonal shape were intensively bleeding. Then the wounds of animals first and second groups (10 in each), D1 and D2 compositions were applied.
The wounds of rats of the 3rd group were treated with Dexpanthenol (DP), the 4th group of 8 animals was the control group, the wounds of these animals were not treated. The compositions in contact with blood formed a gel form, it was covering entire surface of the wound and capture a small fragment of surrounding skin around the wound.
The glue BF-6 was applied on top of the gel, dried and the animals were released into cells.
The planimetric studies of the wounds were carried out from 1st day of experiment on the 3rd, 6th, 9th, 11th, and 13th days, which made it possible to judge the features of reparative processes.
The measurement of the area of the wounds was carried out as follows: on the celluloid film which was covering the wound entirely, contours were applied, after which the area of the wound surface was determined using graph paper.

A further data set relates to HeLa-2 tumor cells. Put plainly: Minimum active dose and cytopathic effect in HeLa-2 cell culture. The format is cell-based. To be noted: minimum amount causing degeneration of 90-95% of the cells; medium 199; monitored 5 days. Here is the method:
Determination of the anticancer activity of MATR in the cell culture was performed in a HeLa-2 cell culture. The different amount of MATR from 2 to 12 μg/ml of medium was added to medium 199. (see table 1). For the control a culture was without MATR. Cell cultures were monitored for 5 days with daily viewing. The minimum active dose (MAD) of MATR was considered to be its minimum amount, which caused degeneration of 90-95% of the cells (Table 2)
(In general: Damage to the host cells serves as the signal in cytopathic effect assays.)

Data set [1] in a line: Toxic dose LD50 and lethal dose LD100. The format is in vivo. Here is the method:
The compositions (MATR and Taxotere) were administered intraperitoneally three times with an interval of two hours in 0.5 ml. For MATR injection aqueous solution was used. The total doses of the compositions were 34.0, 68.0, 84.0, 102.0 and 136 mg/kg. The number of dead animals in each group was confirmed every 24-48 hours. The calculation of the toxic dose, LD50, was carried out according to the protocol. The lethal dose, […], was determined experimentally.

A further data set relates to Schwez leukemia. Put plainly: Antitumor activity on Shvets leukemia. The settings on record: injected dose 9.1*3 = 27.3 mg/kg intraperitoneal. The format is in vivo, Outbred white rats.

For `CC(C)(CO)[C@@H](O)C(=O)NCCCO` [DP, Dexpanthenol], the “Wound Area (S) during the observation” value in the data set on skin wounds (1-3 days) came to 4.1 ± 1.0 cm2; with skin wounds (3-6 days), 3.2 ± 0.3 cm2; in the data set on skin wounds (6-9 days), 2.4 ± 0.3 cm2; with skin wounds (9-11 days), 1.0 ± 0.3 cm2; with skin wounds (11-13 days) it was 0.3 ± 0.1 cm2.
As for `CC(=O)O[C@@]12CO[C@@H]1C[C@H](O)[C@@]1(C)C(=O)[C@H](O)C3=C(C)[C@@H](OC(=O)[C@H](O)[C@@H](NC(=O)OC(C)(C)C)c4ccccc4)C[C@@](O)([C@@H](OC(=O)c4ccccc4)[C@H]21)C3(C)C` [Taxotere], the “MAD (minimum active dose)” value in the data set with HeLa-2 tumor cells is 10 µg/mL. Also, the median lethal dose (LD50) – broadly, the dose at which mortality reaches 50% – in data set [1] (in vivo, intraperitoneal) is 120 mg/kg. For the same compound, the “toxicity of the control compound (dose in brackets)” value in data set [1] (intraperitoneally three times with an interval of two hours) worked out at 120 mg/kg. The same compound displayed a Tumor volume in the data set with Schwez leukemia of 0.73 cm3.
